Source: the OPERA property sets (Mansouri et al. 2018)
In brackets after ≈: the same amount, converted by molar mass.

Conditions: not given

SMILES | solubility [mM]
CC(=O)Oc1c(C(C)(C)C)cc([N+](=O)[O-])c(C)c1[N+](=O)[O-] | 0.0338 (≈ 0.01 mg/mL)
CCOc1ccc(C(=O)OCCN(CC)CC)cc1 | 1.93 (≈ 0.512 mg/mL)
CC(C)(C)NC[C@H](O)COc1ccccc1C1CCCC1 | 24 (≈ 7 mg/mL)
CCc1cccc(CC)c1N | 4.49 (≈ 0.67 mg/mL)
CC(=O)N=c1sc(S(N)(=O)=O)nn1C | 14.8 (≈ 3.5 mg/mL)
c1ccc2c3c(ccc2c1)-c1cccc2cccc-3c12 | 9.91e-06 (≈ 2.5e-06 mg/mL)
COc1cc(NS(=O)(=O)c2ccc(N)cc2)nc(C)n1 | 2.86 (≈ 0.843 mg/mL)
Cc1cc(C)c(C)c(C)c1C | 0.105 (≈ 0.0155 mg/mL)
O=C(O)c1ccc(Cl)cc1Cl | 2.5 (≈ 0.478 mg/mL)
NCCNCCNCCNCCN | 34500 (≈ 6540 mg/mL)
O=C1C=CC(=C(c2ccc(O)cc2)c2ccc(O)cc2)C=C1 | 4.13 (≈ 1.2 mg/mL)
CC1CCC(C)O1 (stereo not given) | 1180 (≈ 118 mg/mL)
CC[C@H](Br)C(=O)O | 419 (≈ 70 mg/mL)

Same assay, conditions: 20 °C

SMILES | solubility [mM]
N[C@@H](CSSC[C@H](N)C(=O)O)C(=O)O | 0.791 (≈ 0.19 mg/mL)
CCCCOC(=O)C(C)O (stereo not given) | 274 (≈ 40 mg/mL)
CNCC(=O)O | 3370 (≈ 300 mg/mL)
O=[N+]([O-])c1cc(Cl)c(Cl)cc1Cl | 0.13 (≈ 0.0294 mg/mL)
O=C(O)C=Cc1ccco1 | 14.5 (≈ 2 mg/mL)
CC(C)C1=CC2=CC[C@@H]3[C@](C)(CCC[C@@]3(C)C(=O)O)[C@H]2CC1 | 0.16 (≈ 0.0484 mg/mL)
CCSc1nc(NC(C)C)nc(NC(C)C)n1 | 0.0626 (≈ 0.016 mg/mL)
CC(Cl)[N+](=O)[O-] (stereo not given) | 36.5 (≈ 4 mg/mL)
CN(C)C(=O)NC1CCCCCCC1 | 6.05 (≈ 1.2 mg/mL)
O=C(O)C1(O)c2ccccc2-c2ccc(Cl)cc21 (stereo not given) | 0.076 (≈ 0.0198 mg/mL)
CC(CCl)OC(C)CCl (stereo not given) | 9.94 (≈ 1.7 mg/mL)
O=C(O)CCCCCCCCCCC(=O)O | 0.174 (≈ 0.04 mg/mL)
Nc1ccc(S(=O)(=O)O)cc1 | 62.4 (≈ 10.8 mg/mL)
N#CCC(N)=O | 1550 (≈ 130 mg/mL)
c1ncc2nc[nH]c2n1 | 4160 (≈ 500 mg/mL)
COP(=S)(OC)Oc1ccc([N+](=O)[O-])c(Cl)c1 | 0.134 (≈ 0.04 mg/mL)
Clc1ccc(-c2cc(Cl)ccc2Cl)c(Cl)c1 | 0.000267 (≈ 7.81e-05 mg/mL)
COC(=O)c1cc(Cl)cc(N)c1Cl | 0.545 (≈ 0.12 mg/mL)
CCCCCCCCCCCCC(=O)O | 0.154 (≈ 0.033 mg/mL)
c1ccc2c(c1)cnc1ccccc12 | 1.67 (≈ 0.3 mg/mL)
O=c1ccc2ccccc2o1 | 13 (≈ 1.9 mg/mL)
CC(C)CNC(=O)N1CCNC1=O | 7.02 (≈ 1.3 mg/mL)
Cc1occc1C(=O)Nc1ccccc1 | 0.497 (≈ 0.1 mg/mL)

SMILES | solubility [mM]
CC(C)OC(=O)C(C)N(C(=O)c1ccccc1)c1ccc(F)c(Cl)c1 (stereo not given) | 0.0373 (≈ 0.0136 mg/mL)
CC(C)(O)C(Cl)(Cl)Cl | 45.1 (≈ 8 mg/mL)
Nc1ccccc1C(=O)O | 25.5 (≈ 3.5 mg/mL)
Clc1cc2c(cc1Cl)Oc1c(Cl)c(Cl)c(Cl)c(Cl)c1O2 | 1.13e-08 (≈ 4.4e-09 mg/mL)
COc1ccc(Oc2ccc(NC(=O)N(C)C)cc2)cc1 | 0.0699 (≈ 0.02 mg/mL)
COc1ccc(C=O)c(C(=O)O)c1OC | 11.9 (≈ 2.5 mg/mL)
OCCOc1ccccc1 | 193 (≈ 26.7 mg/mL)
CNC(=O)Nc1nc2ccccc2s1 | 0.0579 (≈ 0.012 mg/mL)
COCCCNc1nc(NC(C)C)nc(SC)n1 | 1.18 (≈ 0.32 mg/mL)
C[C@@H](CCl)[N+](=O)[O-] | 64.8 (≈ 8 mg/mL)
Oc1cccnc1 | 350 (≈ 33.3 mg/mL)
O=C(O)CN(CP(=O)(O)O)CP(=O)(O)O | 943 (≈ 248 mg/mL)
O=c1ccc2ccccc2[nH]1 | 7.25 (≈ 1.05 mg/mL)
CCCOC(=O)c1ccccc1C(=O)OCCC | 0.432 (≈ 0.108 mg/mL)
COC(=O)c1cccnc1 | 347 (≈ 47.6 mg/mL)
Clc1ccc(-c2ccc(Cl)c(Cl)c2Cl)cc1 | 0.000133 (≈ 3.89e-05 mg/mL)
C[C@H](O)C(=O)Nc1c(I)c(C(=O)NC(CO)CO)c(I)c(C(=O)NC(CO)CO)c1I | 180 (≈ 140 mg/mL)
C[C@H](CCC(=O)O)[C@H]1CC[C@H]2[C@@H]3[C@@H](O)C[C@@H]4C[C@H](O)CC[C@]4(C)[C@H]3CC[C@]12C | 0.108 (≈ 0.0424 mg/mL)
Oc1cc(O)ncn1 | 22.3 (≈ 2.5 mg/mL)
CCOP(=S)(OCC)OP(=S)(OCC)OCC | 0.0931 (≈ 0.03 mg/mL)
OCCN(CCO)c1ccccc1 | 184 (≈ 33.4 mg/mL)
CCNc1nc(NC(C)CC)nc(OC)n1 (stereo not given) | 2.71 (≈ 0.61 mg/mL)
CCCCOC(=O)CC | 11.5 (≈ 1.5 mg/mL)

Same assay, conditions: 21 °C

SMILES | solubility [mM]
CN(C)[C@@H]1C(O)=C(C(N)=O)C(=O)[C@@]2(O)C(O)=C3C(=O)c4c(O)ccc(Cl)c4[C@@H](O)[C@H]3C[C@@H]12 | 3.26 (≈ 1.52 mg/mL)
O=C(O)CCCCCCCCCCCC(=O)O | 6.14 (≈ 1.5 mg/mL)

Same assay, conditions: 22 °C

SMILES | solubility [mM]
CCCOC=O | 250 (≈ 22 mg/mL)
O=[N+]([O-])c1ccc(Oc2ccc(Cl)cc2Cl)cc1 | 0.00352 (≈ 0.001 mg/mL)
CCC1(c2ccccc2)C(=O)NCNC1=O | 2.29 (≈ 0.5 mg/mL)
CCSC(=O)N(CC(C)C)CC(C)C | 0.207 (≈ 0.045 mg/mL)
CC(Oc1ccccc1Cl)C(=O)O (stereo not given) | 5.98 (≈ 1.2 mg/mL)
C1CCN2C[C@@H]3C[C@@H](CN4CCCC[C@@H]34)[C@H]2C1 | 13 (≈ 3.04 mg/mL)

Same assay, conditions: 24 °C

SMILES | solubility [mM]
CNCCCN1c2ccccc2CCc2ccccc21 | 0.22 (≈ 0.0586 mg/mL)
CC(C)N(N=O)C(C)C | 99.9 (≈ 13 mg/mL)
Nc1cccc2nc3ccccc3cc12 | 0.06 (≈ 0.0117 mg/mL)

Same assay, conditions: 25 °C

SMILES | solubility [mM]
CCCC[C@@H](O)CC | 34.4 (≈ 4 mg/mL)
CC#CCCCC | 1.7 (≈ 0.163 mg/mL)
CCC1(CC)C(=O)NC(=O)N(C)C1=O | 9.99 (≈ 1.98 mg/mL)
COC1=CC(=O)C[C@@H](C)[C@]12Oc1c(Cl)c(OC)cc(OC)c1C2=O | 0.0245 (≈ 0.00864 mg/mL)
C=Cc1ccccc1 | 2.98 (≈ 0.31 mg/mL)
Fc1ccccc1Br | 2.01 (≈ 0.353 mg/mL)
CC1CCC(C)(C)C1 (stereo not given) | 0.0332 (≈ 0.00373 mg/mL)
CCC(CC)CO | 39.1 (≈ 4 mg/mL)
Cc1cccc2c1ccc1ccccc12 | 0.0014 (≈ 0.000269 mg/mL)
c1ccc2c(c1)CCN2 | 90.6 (≈ 10.8 mg/mL)
